In paper PMC9030691, “Toxicokinetics of β-Amanitin in Mice and In Vitro Drug–Drug Interaction Potential” (Pharmaceutics, 2022):
pIC50: −log10 of the molar value. Read-outs that look alike come from different tables or passages of the source.

How the values were obtained:
CYP2C8 = molecular target: T1, CYP2C8 (Homo sapiens, UniProt P10632); experiment: CYP2C8 inhibition in human liver microsomes; assay type: in vitro ADME; details: ultrapooled human liver microsomes 0.2 mg/mL, 2 μM amodiaquine, β-amanitin 0.1–100 μM, pH 7.4, 37 °C, 15 min, LC-MS/MS, n = 3, read-out: IC50, CYP2C8 amodiaquine N-deethylase
T1 construct: enzyme activities in HLMs were evaluated using LC-MS/MS and CYP substrates; from tissue; host or cells: ultrapooled human liver microsomes
T1 sequence (P10632 1-490): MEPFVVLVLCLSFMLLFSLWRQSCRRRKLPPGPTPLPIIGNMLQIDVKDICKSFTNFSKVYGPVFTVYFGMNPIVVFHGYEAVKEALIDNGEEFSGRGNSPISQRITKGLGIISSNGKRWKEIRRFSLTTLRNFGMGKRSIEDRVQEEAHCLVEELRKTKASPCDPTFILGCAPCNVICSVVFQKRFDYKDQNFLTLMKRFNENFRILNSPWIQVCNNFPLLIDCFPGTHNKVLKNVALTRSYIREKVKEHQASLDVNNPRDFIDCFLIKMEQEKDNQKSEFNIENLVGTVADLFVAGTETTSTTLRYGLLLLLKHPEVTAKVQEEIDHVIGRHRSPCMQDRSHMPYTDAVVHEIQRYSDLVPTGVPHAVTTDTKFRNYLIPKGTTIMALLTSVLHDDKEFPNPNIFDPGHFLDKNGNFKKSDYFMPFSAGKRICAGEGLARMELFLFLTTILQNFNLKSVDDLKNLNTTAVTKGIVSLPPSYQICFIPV
Procedure: β-amanitin inhibition (IC50 values) of CYP1A2, CYP2A6, CYP2B6, CYP2C8, CYP2C9, CYP2C19, CYP2D6, and CYP3A4 enzyme activities in HLMs were evaluated using LC-MS/MS and CYP substrates as previously described. Each incubation mixture was made up to a volume of 100 μL including HLMs (0.2 mg/mL), 50 mM potassium phosphate buffer (pH 7.4), 1.0 mM NADPH, 10 mM magnesium chloride, various concentrations of β-amanitin (0.1–100 μM), a cocktail of seven CYP probe substrates (50 μM phenacetin for CYP1A2, 2.5 μM coumarin for CYP2A6, 2 μM amodiaquine for CYP2C8, 10 μM diclofenac for CYP2C9, 100 μM [S]-mephenytoin for CYP2C19, 5 μM bufuralol for CYP2D6, and 2.5 μM midazolam for CYP3A4 in acetonitrile), or 50 μM bupropion for CYP2B6. The reactions were initiated with NADPH followed by incubation in a shaking water bath at 37 °C for 15 min with or without 30 min preincubation with NADPH. Reactions were stopped with 50 μL of ice-cold methanol containing ^13C2, ^15N-acetaminophen and d9-1′-hydroxybufuralol (ISs). Incubation mixtures were centrifuged at 13,000× g for 8 min at 4 °C. An aliquot (5 μL) of the supernatant from the reaction mixture was analyzed by the previous LC-MS/MS method.

in vivo = assay type: in vivo; details: male ICR mice, n = 4; for AUClast, brain: brain homogenate; for AUClast, heart: heart homogenate; for AUClast, kidney: kidney homogenate; for AUClast, liver: liver homogenate; for AUClast, lung: lung homogenate; for AUClast, spleen: spleen homogenate; for AUC(0-t): mouse, in vivo, plasma, read-out: AUClast, plasma (converted)
Procedure: Male mice fasted for 12 h with free access to water. Blood, brain, liver, kidney, heart, lung, stomach, intestine, and spleen were collected at 0.5, 1, 2, and 4 h after iv (0.8 mg/kg) injection or at 0.5, 1, 3, and 6 h after oral (10 mg/kg) administration of β-amanitin (n = 4 at each time point). Plasma samples (5 μL each) were harvested by centrifugation at 13,000× g for 3 min at 4 °C. Tissue samples were washed with cold normal saline, weighed, and stored at −80 °C until analysis.
Concentrations of β-amanitin in biological samples were evaluated following our previous methodology. The standard calibration curves for β-amanitin in mouse plasma ranged from 0.5 to 500 ng/mL and were linear, with a correlation coefficient of 0.9952. The inter- and intra-day accuracy and precision fell within the acceptance criteria (3.1–14.6% of coefficients of variation (CVs) and 92.5–115.0% of accuracy). The extraction recovery and matrix effect of this analytical method were 82.8–88.9% and 93.0–98.6%.
Each tissue and feces sample was homogenized in water (1:3, w/v). In total, 50 μL aliquots of urine, tissue homogenates, or feces homogenates were mixed with 150 μL of 4′-hydroxydiclofenac solution (IS, 5 ng/mL in methanol). The other steps were as described for plasma sample preparation.
Toxicokinetics of β-Amanitin in Mice and In Vitro Drug–Drug
Young Yoon Bang, Im-Sook Song, Min Seo Lee, Chang Ho Lim, Yong-Yeon Cho, Joo Young Lee, Han Chang Kang […]
1. Liquid chromatography-high resolution mass spectrometry (LC-HRMS) of β-amani-tin in various tissue samples
Blood, brain, liver, kidney, heart, lung, stomach, intestine, and spleen tissues were collected, washed with cold normal saline, and weighted. Tissue samples were homoge-nized in water (1:3, w/v) and 50 μL aliquots of tissue homogenates were mixed with 150 μL of 4’-hydroxydiclofenac solution (IS, 5 ng/mL in methanol) and vortexed for 2 min. The mixture was centrifuged at 13,000 rpm at 4 °C for 5 min, and the supernatant was then transferred to an autosampler vial. An aliquot (5 μL) was injected into the LC-HRMS sys-tem for analysis, according to the previous methods. The standard calibration curves for β-amanitin in various tissue homogenates were prepared individually using the re-spective blank tissue homogenates. Each calibration standard curve was validated using the quality control (QC) samples.
As results, the standard calibration curves for β-amanitin in various tissue homoge- […]
the quality control samples prepared in various tissue homogenates were all in acceptance criteria (Supplementary Table 1).
Table S1. Concentration ranges, representative regression equation, and correlation coefficients of the calibration curves and precision (coefficient of variation, CV) and accuracy values for β-amanitin […]
Tissue Concentration Representative regression Correlation range (ng/g tissue) equation coefficient QC (ng/g tissue) Intra-day (n = 5) Accuracy (%) CV (%) […]

[1] = iv 0.8 mg/kg, sampled 0.5, 1, 2, 4 h, LC-HRMS, mean ± SD
[2] = po 10 mg/kg, sampled 0.5, 1, 3, 6 h, LC-HRMS, mean ± SD

CC[C@H](C)[C@@H]1NC(=O)CNC(=O)[C@@H]2Cc3c([nH]c4cc(O)ccc34)[S@+]([O-])C[C@H](NC(=O)CNC1=O)C(=O)N[C@@H](CC(=O)O)C(=O)N1C[C@H](O)C[C@H]1C(=O)N[C@@H]([C@@H](C)[C@@H](O)CO)C(=O)N2 [β-amanitin]
pIC50 (CYP2C8; with 30 min NADPH preincubation): < 4.00 | pIC50 (CYP2C8; without NADPH preincubation): < 4.00 | AUClast, brain (in vivo; iv 0.8 mg/kg, sampled 0.5, 1, 2, 4 h, LC-HRMS): - | AUClast, heart (in vivo; [1]): 13,397 ± 908 ng⋅min/g | AUClast, kidney (in vivo; [1]): 142,023 ± 7510 ng⋅min/g | AUClast, liver (in vivo; [1]): 25,780 ± 2440 ng⋅min/g | AUClast, lung (in vivo; [1]): 35,970 ± 3070 ng⋅min/g | Tissue to plasma (AUC) ratio, heart (in vivo; iv 0.8 mg/kg): 0.2 | Tissue to plasma (AUC) ratio, liver (in vivo; iv 0.8 mg/kg): 0.5 | Tissue to plasma (AUC) ratio, lung (in vivo; iv 0.8 mg/kg): 0.7 | Tissue to plasma (AUC) ratio, kidney (in vivo; iv 0.8 mg/kg, 0.8 mg/kg): 2.6 | Tissue to plasma (AUC) ratio, spleen (in vivo; iv 0.8 mg/kg, 0.8 mg/kg): 2.5 | AUClast, spleen (in vivo; [1]): 137,855 ± 11,949 ng⋅min/g | AUClast, brain (in vivo; po 10 mg/kg, sampled 0.5, 1, 3, 6 h, LC-HRMS): - | AUClast, heart (in vivo; [2]): 12,563 ± 2696 ng⋅min/g | AUClast, intestine (in vivo; po 10 mg/kg, intestine homogenate, sampled 0.5, 1, 3, 6 h, LC-HRMS, mean ± SD): 2,066,298 ± 492,689 ng⋅min/g | AUClast, kidney (in vivo; [2]): 158,677 ± 84,620 ng⋅min/g | AUClast, liver (in vivo; [2]): 12,665 ± 11,731 ng⋅min/g | AUClast, lung (in vivo; [2]): 37,831 ± 11,434 ng⋅min/g | Tissue to plasma (AUC) ratio, heart (in vivo; po 10 mg/kg): 0.5 | Tissue to plasma (AUC) ratio, intestine (in vivo; po 10 mg/kg): 87.3 | Tissue to plasma (AUC) ratio, liver (in vivo; po 10 mg/kg): 0.5 | Tissue to plasma (AUC) ratio, lung (in vivo; po 10 mg/kg): 1.6 | Tissue to plasma (AUC) ratio, spleen (in vivo; po 10 mg/kg): 1.8 | Tissue to plasma (AUC) ratio, stomach (in vivo; po 10 mg/kg): 28.8 | AUClast, spleen (in vivo; [2]): 42,409 ± 33,867 ng⋅min/g | AUClast, stomach (in vivo; po 10 mg/kg, stomach homogenate, sampled 0.5, 1, 3, 6 h, LC-HRMS, mean ± SD): 680,749 ± 137,691 ng⋅min/g | AUC(0-t) (in vivo; [1]): 910 ng·h/mL | AUC(0-t) (in vivo; [2]): 394 ng·h/mL
